Results from US11155879B2, “Method of predicting effects of CDC7 inhibitor” (TAKEDA PHARMACEUTICAL COMPANY LIMITED, priority 2017, dated 2021).

System: pancreatic patient-derived tumor xenografts (PDX models)
Assay: In vivo antitumor activity in female BALB/c nude mice bearing patient-derived tumor xenografts (PDXs)
Details: 60 mg/kg, Bid, po, 21 days, 3 days on 4 days off
Excerpt: In Vivo Antitumor Activity of Compound 1 Hemihydrate in Female BALB/c Nude Mice Bearing Patient-Derived Tumor Xenografts (PDXs)
Tumor fragments from seed mice inoculated with selected PDX tumors were harvested and used for inoculation into BALB/c nude mice. Each mouse was inoculated subcutaneously at the right flank with one tumor fragment (2-3 mm in diameter). The treatments were started when mean tumor size reached approximately 200-250 mm^3. For each model, 6 tumor bearing mice were randomized into 2 groups. Mice were dosed orally with either vehicle (0.5% w:v methyl cellulose) or Compound 1 hemihydrate Form A crystal (60 mg/kg, Bid, po, 21 days, 3 days on 4 days off).
The % tumor growth inhibition (TGI) was taken as endpoints to determine when the tumor growth can be delayed or mice can be cured. Tumor sizes were measured twice weekly in two dimensions using a caliper, and the volume is expressed in mm^3 using the formula: V=0.5a×b^2,
where a and b are the long and short diameters of the tumor, respectively. The % TGI was calculated using the following formula: % TGI=(1−(Ti-T0)/(Vi-V0))*100 […]

`Cc1n[nH]cc1-c1cc2nc([C@@H]3CC4CCN3CC4)[nH]c(=O)c2s1` [Compound 1 hemihydrate, 2-[(2S)-1-azabicyclo[2.2.2]oct-2-yl]-6-(3-methyl-1H-pyrazol-4-yl)thieno[3,2-d]pyrimidin-4(3H)-one] was tested, and the “tumor growth inhibition (% TGI)” value (22 out of 25 pancreatic PDX models, vs vehicle (0.5% methyl cellulose)) was over 60% and the “sensitivity of KRAS-mutant pancreatic tumors compared to KRAS-wild type ones (correlative study on % TGI, FIG. 1)” value (pancreatic PDX models, Student's t-test KRAS-mutant vs KRAS-wild) was “more sensitive”.
